Experimental data from patent US20250090540A1, “PI3K-ALPHA INHIBITORS AND METHODS OF USE THEREOF” (Relay Therapeutics, Inc., priority 2021, published 2025).

target: H1047R PIK3CA enzyme (Homo sapiens, UniProt P42336, H1047R); assay: ADP-Glo Biochemical PIK3CA Kinase Assay; conditions: not given
Sequence (P42336 whole entry H1047R): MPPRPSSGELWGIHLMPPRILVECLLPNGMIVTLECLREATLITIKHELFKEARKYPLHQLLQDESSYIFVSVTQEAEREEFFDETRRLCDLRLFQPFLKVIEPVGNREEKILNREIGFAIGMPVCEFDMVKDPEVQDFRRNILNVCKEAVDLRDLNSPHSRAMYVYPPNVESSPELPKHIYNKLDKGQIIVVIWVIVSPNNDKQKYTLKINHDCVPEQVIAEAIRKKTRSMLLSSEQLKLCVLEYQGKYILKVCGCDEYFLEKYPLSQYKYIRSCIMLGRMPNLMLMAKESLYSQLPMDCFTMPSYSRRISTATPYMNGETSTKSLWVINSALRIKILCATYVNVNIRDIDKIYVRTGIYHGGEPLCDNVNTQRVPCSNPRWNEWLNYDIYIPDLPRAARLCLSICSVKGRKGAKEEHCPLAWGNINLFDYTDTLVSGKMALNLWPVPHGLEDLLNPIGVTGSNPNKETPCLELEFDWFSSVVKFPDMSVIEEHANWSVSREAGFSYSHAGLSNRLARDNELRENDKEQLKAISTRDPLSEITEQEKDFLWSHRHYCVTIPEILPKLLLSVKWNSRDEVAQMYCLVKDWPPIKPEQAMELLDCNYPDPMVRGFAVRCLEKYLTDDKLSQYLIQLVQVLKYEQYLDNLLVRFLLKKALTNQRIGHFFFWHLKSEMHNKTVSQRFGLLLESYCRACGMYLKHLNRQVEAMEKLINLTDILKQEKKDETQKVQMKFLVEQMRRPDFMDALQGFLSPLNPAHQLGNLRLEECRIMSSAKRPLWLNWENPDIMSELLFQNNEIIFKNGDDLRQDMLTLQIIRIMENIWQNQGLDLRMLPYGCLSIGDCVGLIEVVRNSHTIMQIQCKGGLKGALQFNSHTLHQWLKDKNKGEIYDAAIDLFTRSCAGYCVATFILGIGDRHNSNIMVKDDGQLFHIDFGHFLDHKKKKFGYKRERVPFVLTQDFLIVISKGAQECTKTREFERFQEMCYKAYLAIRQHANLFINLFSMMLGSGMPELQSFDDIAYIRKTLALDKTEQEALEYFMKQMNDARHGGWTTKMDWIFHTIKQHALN
Sequence (P27986 whole entry partner): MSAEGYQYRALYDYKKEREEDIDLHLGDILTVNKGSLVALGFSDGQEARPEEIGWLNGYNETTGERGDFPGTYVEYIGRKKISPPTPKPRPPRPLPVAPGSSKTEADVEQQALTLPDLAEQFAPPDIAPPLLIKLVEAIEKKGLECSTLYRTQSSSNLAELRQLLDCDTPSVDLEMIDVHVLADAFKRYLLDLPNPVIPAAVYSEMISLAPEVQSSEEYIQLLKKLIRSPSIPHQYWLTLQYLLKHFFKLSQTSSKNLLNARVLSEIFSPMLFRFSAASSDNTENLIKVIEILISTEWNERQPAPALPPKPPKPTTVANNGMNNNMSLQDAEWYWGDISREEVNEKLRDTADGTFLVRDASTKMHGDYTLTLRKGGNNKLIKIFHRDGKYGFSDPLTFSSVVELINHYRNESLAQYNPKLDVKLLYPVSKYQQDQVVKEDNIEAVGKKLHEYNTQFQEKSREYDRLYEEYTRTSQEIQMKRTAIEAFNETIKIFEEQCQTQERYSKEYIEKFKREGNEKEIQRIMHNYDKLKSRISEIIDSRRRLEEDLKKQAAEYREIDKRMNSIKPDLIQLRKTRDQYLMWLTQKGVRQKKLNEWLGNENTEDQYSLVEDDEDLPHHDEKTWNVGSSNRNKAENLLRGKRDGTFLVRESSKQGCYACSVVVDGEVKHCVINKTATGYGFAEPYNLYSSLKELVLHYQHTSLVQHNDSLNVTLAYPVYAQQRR

| IC50 [µM] | Structure (SMILES) |
| --- | --- |
| 10 to 100 | CNC(=O)c1cnc(Nc2ccccc2C)c(NC(=O)c2c(C)sc3ccccc23)c1 [I-328] |
| 10 to 100 | CNC(=O)c1cnc(Nc2ccccc2C)c(NC(=O)C2(c3ccccn3)CC2)c1 [I-333] |
| 10 to 100 | CNC(=O)c1cnc(Nc2ccccc2C)c(NC(=O)C2(c3cccnc3)CC2)c1 [I-334] |
| 1 to 10 | O=C(Nc1cc(C(=O)NC2CC(F)(F)C2)cnc1N1C(=O)NCc2ccccc21)c1cc(F)cc(C(F)(F)F)c1 [I-338] |
| 1 to 10 | CNC(=O)c1cnc(Nc2ccccc2C)c(NC(=O)c2csc3c2CCCC3)c1 [I-340] |
| 1 to 10 | CNC(=O)c1cnc(Nc2ccccc2C)c(NC(=O)c2csc3c2CCC3)c1 [I-341] |
| 10 to 100 | CNC(=O)c1cnc(Nc2ccccc2C)c(NC(=O)C2(c3ccccc3)CC2(F)F)c1 (centres unmarked) [I-342] |
| 1 to 10 | Cc1ccccc1Nc1ccncc1NC(=O)c1csc2ccccc12 [I-344] |
| 1 to 10 | CNC(=O)c1cnc(Nc2cccc(OC)n2)c(NC(=O)c2csc3ccccc23)c1 [I-346] |
| 1 to 10 | Cc1ccccc1Nc1ncc(C(O)CO)cc1NC(=O)c1cc(F)cc(C(F)(F)F)c1 (centres unmarked) [I-351] |
| 1 to 10 | CNC(=O)c1cnc(Nc2ccccc2C)c(NC(=O)c2csc3cc(C)ccc23)c1 [I-354] |
| 10 to 100 | CNC(=O)c1cnc(Nc2ccccc2C)c(NC(=O)c2csc3cc(OC)ccc23)c1 [I-355] |
| 10 to 100 | Cc1ccccc1Nc1ncc(C(=O)NC2CS(=O)(=O)C2)cc1NC(=O)c1cncc2ccccc12 [I-356] |
| 10 to 100 | Cc1ccccc1Nc1ncc(C(=O)NC2CS(=O)(=O)C2)cc1NC(=O)c1cc2ccccc2o1 [I-357] |
| 10 to 100 | CNC(=O)c1cnc(NCCOC)c(NC(=O)c2cc(F)cc(C(F)(F)F)c2)c1 [I-358] |
| 10 to 100 | CNC(=O)c1cnc(NC2CCCCC2)c(NC(=O)c2cc(F)cc(C(F)(F)F)c2)c1 [I-359] |
| 10 to 100 | CNC(=O)c1cnc(NC2CCCC2)c(NC(=O)c2cc(F)cc(C(F)(F)F)c2)c1 [I-360] |
| 1 to 10 | Cc1ccccc1Nc1cc(=O)n(CC(=O)NCC2CC(F)(F)C2)cc1NC(=O)c1csc2ccccc12 [I-363] |
| 1 to 10 | CNC(=O)c1cnc(Nc2ccccc2C)c(NC(=O)c2cc(F)cc(OC(F)F)c2)c1 [I-364] |
| 10 to 100 | CNC(=O)c1cnc(Nc2ccccc2C)c(NC(=O)c2cnccc2C(F)(F)F)c1 [I-365] |
| 10 to 100 | CNC(=O)c1cnc(Nc2ccccc2C)c(NC(=O)c2ccnc(C(F)(F)F)c2)c1 [I-366] |
| 10 to 100 | CNC(=O)c1cnc(Nc2ccccc2C)c(NC(=O)c2nc3ccccc3n(C)c2=O)c1 [I-368] |
| 10 to 100 | CNC(=O)c1cnc(Nc2ccccc2C)c(NC(=O)c2cc(C)n(C(F)F)n2)c1 [I-369] |

| IC50 [µM] | Structure (SMILES) |
| --- | --- |
| 10 to 100 | CNC(=O)c1cnc(Nc2ccccc2C)c(NC(=O)c2c[nH]c3cccc(OC)c23)c1 [I-370] |
| 10 to 100 | CNC(=O)c1cnc(Nc2ccccc2C)c(NC(=O)c2cccnc2C(F)(F)F)c1 [I-371] |
| 10 to 100 | CNC(=O)c1cnc(Nc2ccccc2C)c(NC(=O)c2nccnc2C(F)(F)F)c1 [I-372] |
| 10 to 100 | CNC(=O)c1cnc(Nc2ccccc2C)c(NC(=O)Cc2cc(C)cc(F)c2)c1 [I-373] |
| 10 to 100 | CNC(=O)c1cnc(Nc2ccccc2C)c(NC(=O)c2cn3ccccc3n2)c1 [I-374] |
| 10 to 100 | CNC(=O)c1cnc(Nc2ccccc2C)c(NC(=O)c2cccc(C(F)(F)F)n2)c1 [I-376] |
| 10 to 100 | CNC(=O)c1cnc(Nc2ccccc2C)c(NC(=O)c2cn3c(Cl)cccc3n2)c1 [I-377] |
| 10 to 100 | CNC(=O)c1cnc(Nc2ccccc2C)c(NC(=O)c2ccc(F)c(F)c2OC)c1 [I-378] |
| 10 to 100 | CNC(=O)c1cnc(Nc2ccccc2C)c(NC(=O)c2cccc(C#N)n2)c1 [I-379] |
| 10 to 100 | CNC(=O)c1cnc(Nc2ccccc2C)c(NC(=O)c2cn3c(C(F)(F)F)cccc3n2)c1 [I-380] |
| 10 to 100 | CNC(=O)c1cnc(Nc2ccccc2C)c(NC(=O)CC2COc3ccccc3O2)c1 (centres unmarked) [I-381] |
| 10 to 100 | CNC(=O)c1cnc(Nc2ccccc2C)c(NC(=O)c2ccc(Cl)c(C#N)c2)c1 [I-382] |
| 10 to 100 | CNC(=O)c1cnc(Nc2ccccc2C)c(NC(=O)c2n[nH]c3c(F)cccc23)c1 [I-383] |
| 10 to 100 | CNC(=O)c1cnc(Nc2ccccc2C)c(NC(=O)CCc2cnccc2C(F)(F)F)c1 [I-384] |
| 10 to 100 | CNC(=O)c1cnc(Nc2ccccc2C)c(NC(=O)c2cnn(C)c2C(F)(F)F)c1 [I-385] |
| 10 to 100 | CNC(=O)c1cnc(Nc2ccccc2C)c(NC(=O)C2CCNc3ccccc32)c1 (centres unmarked) [I-386] |
| 10 to 100 | CNC(=O)c1cnc(Nc2ccccc2C)c(NC(=O)CC2OCCc3ccccc32)c1 (centres unmarked) [I-387] |
| 10 to 100 | CNC(=O)c1cnc(Nc2ccccc2C)c(NC(=O)c2cncc(C(F)(F)F)c2)c1 [I-388] |
| 10 to 100 | CNC(=O)c1cnc(Nc2ccccc2C)c(NC(=O)c2cc(F)cc(S(N)(=O)=O)c2)c1 [I-389] |
| 10 to 100 | CNC(=O)c1cnc(Nc2ccccc2C)c(NC(=O)c2ccc(OC(F)(F)F)c(F)c2)c1 [I-391] |
| 10 to 100 | CNC(=O)c1cnc(Nc2ccccc2C)c(NC(=O)c2cc(F)cc3[nH]ccc23)c1 [I-392] |
| 10 to 100 | CNC(=O)c1cnc(Nc2ccccc2C)c(NC(=O)c2cc(F)c3[nH]ncc3c2)c1 [I-393] |
| 10 to 100 | CNC(=O)c1cnc(Nc2ccccc2C)c(NC(=O)c2cc(F)c3cc[nH]c3c2)c1 [I-394] |

| Structure (SMILES) | IC50 [µM] |
| --- | --- |
| CCn1nc(C(=O)Nc2cc(C(=O)NC)cnc2Nc2ccccc2C)c2ccccc21 [I-375] | 10 to 100 |

same assay, conditions: ADP-Glo biochemical PIK3CA kinase assay

| IC50 [µM] | Structure (SMILES) |
| --- | --- |
| 10 to 100 | CNC(=O)c1cnc(Nc2cccnc2OC)c(NC(=O)c2csc3ccccc23)c1 [I-400] |
| 1 to 10 | CNC(=O)c1cnc(Nc2cccc(OC)c2)c(NC(=O)c2csc3ccccc23)c1 [I-401] |
| 10 to 100 | CNC(=O)c1cnc(Nc2ccccc2C)c(NC(=O)c2csc3c2CCC(C)(C)C3)c1 [I-403] |
| 10 to 100 | CNC(=O)c1cnc(Nc2ccccc2C)c(NC(=O)c2csc3cc(F)cc(F)c23)c1 [I-404] |
| 10 to 100 | CNC(=O)c1cnc(Nc2ccccc2C)c(NC(=O)Cc2csc3ccccc23)c1 [I-410] |
| 10 to 100 | CNC(=O)c1cnc(Nc2ccccc2C)c(NC(=O)c2cnc3c(Cl)cccn23)c1 [I-414] |
| 10 to 100 | CNC(=O)c1cnc(Nc2ccccc2C)c(NC(=O)c2nc3ccccn3c2F)c1 [I-415] |
| 10 to 100 | CNC(=O)c1cnc(Nc2ccccc2C)c(NC(=O)c2cnc(O)cc2C(F)(F)F)c1 [I-416] |
| 10 to 100 | CNC(=O)c1cnc(Nc2ccccc2C)c(NC(=O)c2cn(C)nc2C(F)F)c1 [I-417] |
| 10 to 100 | CNC(=O)c1cnc(Nc2ccccc2C)c(NC(=O)c2cc(C)c3ccccc3n2)c1 [I-418] |
| 1 to 10 | CNC(=O)c1cnc(Nc2ccccc2C)c(NC(=O)c2cc(C)cc3cccnc23)c1 [I-419] |
| 10 to 100 | CNC(=O)c1cnc(Nc2ccccc2C)c(NC(=O)c2cnn3cc(F)ccc23)c1 [I-420] |
| 1 to 10 | CNC(=O)c1cnc(Nc2ccccc2C)c(NC(=O)c2cccc3cc(C)[nH]c23)c1 [I-421] |
| 10 to 100 | CNC(=O)c1cnc(Nc2ccccc2C)c(NC(=O)c2cn3c(F)cccc3n2)c1 [I-422] |
| 1 to 10 | CNC(=O)c1cnc(Nc2ccccc2C)c(NC(=O)c2cc(C)cc3cc[nH]c23)c1 [I-423] |
| 10 to 100 | CNC(=O)c1cnc(Nc2ccccc2C)c(NC(=O)c2cc3cc(F)ccc3[nH]2)c1 [I-425] |
| 1 to 10 | CNC(=O)c1cnc(Nc2ccccc2C)c(NC(=O)c2n[nH]c3cccc(F)c23)c1 [I-426] |
| 10 to 100 | CNC(=O)c1cnc(Nc2ccccc2C)c(NC(=O)c2nc3ccccn3c2C)c1 [I-427] |
| 10 to 100 | CNC(=O)c1cnc(Nc2ccccc2C)c(NC(=O)C(C)n2ccccc2=O)c1 (centres unmarked) [I-428] |
| 10 to 100 | CNC(=O)c1cnc(Nc2ccccc2C)c(NC(=O)c2cc3cc[nH]c3cc2F)c1 [I-429] |
| 10 to 100 | CNC(=O)c1cnc(Nc2ccccc2C)c(NC(=O)c2cnn3cccc(OC)c23)c1 [I-430] |

| IC50 [µM] | Structure (SMILES) |
| --- | --- |
| 10 to 100 | CNC(=O)c1cnc(Nc2ccccc2C)c(NC(=O)c2ccc3c(cnn3C)c2)c1 [I-431] |
| 10 to 100 | CNC(=O)c1cnc(Nc2ccccc2C)c(NC(=O)c2cc(C(F)(F)F)ccn2)c1 [I-432] |
| 10 to 100 | Cc1ccccc1CNc1cccc(=O)n1Cc1ccccc1C [I-433] |
| 10 to 100 | CNC(=O)c1cnc(Nc2ccccc2C)c(NC(=O)CCc2ccccc2F)c1 [I-437] |
| 10 to 100 | CNC(=O)c1cnc(Nc2ccccc2C)c(NC(=O)c2ccnc3c(F)cccc23)c1 [I-438] |
| 10 to 100 | CNC(=O)c1cnc(Nc2ccccc2C)c(NC(=O)c2nn(C)c(C3CC3)c2F)c1 [I-439] |
| 10 to 100 | CNC(=O)c1cnc(Nc2ccccc2C)c(NC(=O)c2cc3c(C)cccc3[nH]2)c1 [I-440] |
| 10 to 100 | CNC(=O)c1cnc(Nc2ccccc2C)c(NC(=O)C2CCCCC2(F)F)c1 (centres unmarked) [I-441] |
| 10 to 100 | CNC(=O)c1cnc(Nc2ccccc2C)c(NC(=O)c2cc3cccc(F)c3s2)c1 [I-442] |
| 10 to 100 | CNC(=O)c1cnc(Nc2ccccc2C)c(NC(=O)c2cccnc2CS(C)(=O)=O)c1 [I-443] |
| 10 to 100 | CNC(=O)c1cnc(Nc2ccccc2C)c(NC(=O)c2ccnc3ccc(Br)cc23)c1 [I-444] |
| 10 to 100 | CNC(=O)c1cnc(Nc2ccccc2C)c(NC(=O)c2cccc(Cl)c2C)c1 [I-445] |
| 10 to 100 | CC#CCC(C(=O)Nc1cc(C(=O)NC)cnc1Nc1ccccc1C)c1ccccc1 (centres unmarked) [I-446] |
| 10 to 100 | CNC(=O)c1cnc(Nc2ccccc2C)c(NC(=O)c2ccc3c(c2)COC3)c1 [I-447] |
| 10 to 100 | CNC(=O)c1cnc(Nc2ccccc2C)c(NC(=O)c2cc(=O)[nH]c3ccccc23)c1 [I-448] |
| 0.1 to 0.5 | CNC(=O)c1cnc(Nc2ccccc2C)c(NC(=O)c2cc(Cl)n3ccccc23)c1 [I-449] |
| 10 to 100 | CNC(=O)c1cnc(Nc2ccccc2C)c(NC(=O)c2cc(C)nn2C(F)F)c1 [I-450] |
| 10 to 100 | CNC(=O)c1cnc(Nc2ccccc2C)c(NC(=O)c2cnc3cc(F)ccn23)c1 [I-451] |
| 10 to 100 | CNC(=O)c1cnc(Nc2ccccc2C)c(NC(=O)c2cc3c(Cl)cncc3s2)c1 [I-452] |
| 10 to 100 | CNC(=O)c1cnc(Nc2ccccc2C)c(NC(=O)c2ccc3ccccc3c2Br)c1 [I-453] |
| 10 to 100 | CNC(=O)c1cnc(Nc2ccccc2C)c(NC(=O)c2cccc(OC)c2F)c1 [I-454] |
